Source: the NIST ThermoML archive (doi:10.1016/j.jct.2006.12.005)

Assays:
[1] = refractive index (Na D-line) (dimensionless); conditions: 101.33 kPa, Liquid, Standard Abbe refractometry
[2] = for speed of sound / mass density / viscosity: 101.33 kPa, Liquid; for speed of sound: VIBRATING TUBE DENSIMETER; for mass density: Vibrating tube method; for surface tension liquid-gas: Ring tensiometer; for viscosity: Capillary tube (Ostwald / Ubbelohde) method

CCCCn1cc[n+](C)c1.F[P-](F)(F)(F)(F)F [1-butyl-3-methylimidazolium hexafluorophosphate]
Conditions	mass density, [2] [kg/m3]	refractive index, [1]	speed of sound, [2] [m/s]	surface tension liquid-gas, [2] [mN/m]	viscosity, [2] [mPa·s]
278.15 K	1384.36	–	1492.5	–	–
283.15 K	1380.1	1.41332	1480.8	–	–
288.15 K	1375.83	1.41198	1468.2	43.7	–
293.15 K	1371.56	1.41069	1455.3	43.2	340.49
298.15 K	1367.3	1.40937	1442.8	42.9	247.06
303.15 K	1363.03	1.40808	1430.6	42.6	184.23
308.15 K	1358.76	1.40674	1419	42.2	140.57
313.15 K	1354.53	1.40543	1406.4	41.8	108.9
318.15 K	1350.32	1.40411	1394.9	–	85.9
323.15 K	1346.12	1.40282	1383.5	–	68.79
328.15 K	1341.97	1.40151	1372.2	–	–
333.15 K	1337.83	1.40024	1360.9	–	–
338.15 K	1333.7	1.39896	1349.2	–	–
343.15 K	1329.61	1.39771	1337.2	–	–

CCCCCCn1cc[n+](C)c1.F[P-](F)(F)(F)(F)F [1-hexyl-3-methylimidazolium hexafluorophosphate]
[2]
Conditions	speed of sound [m/s]	surface tension liquid-gas [mN/m]	viscosity [mPa·s]
278.15 K	1490.7	–	–
283.15 K	1470.8	–	–
288.15 K	1453.6	–	–
293.15 K	1438.3	37.5	676.82
298.15 K	1424.2	37.1	475.66
303.15 K	1411	36.8	342.52
308.15 K	1398.5	36.5	252.69
313.15 K	1386.4	36.1	187.36
318.15 K	1374.6	–	143.58
323.15 K	1363	–	111.9
328.15 K	1351.7	–	–
333.15 K	1340.3	–	–
338.15 K	1329.3	–	–
343.15 K	1318.4	–	–

CCCCCCCC[n+]1ccn(C)c1.F[P-](F)(F)(F)(F)F [1-octyl-3-methylimidazolium hexafluorophosphate]
Conditions	mass density, [2] [kg/m3]	refractive index, [1]	speed of sound, [2] [m/s]	surface tension liquid-gas, [2] [mN/m]	viscosity, [2] [mPa·s]
278.15 K	1251.83	–	1481.6	–	–
283.15 K	1247.65	1.42716	1460	–	–
288.15 K	1243.43	1.42578	1440.8	–	–
293.15 K	1239.57	1.4244	1423.7	36.5	999.08
298.15 K	1235.72	1.42302	1407.8	36.2	690.6
303.15 K	1231.88	1.42165	1393	35.9	489.02
308.15 K	1228.04	1.42028	1378.9	35.6	355.31
313.15 K	1224.21	1.41887	1365.8	35.2	263.23
318.15 K	1220.37	1.41749	1353.2	–	196.23
323.15 K	1216.62	1.4161	1341	–	150.57
328.15 K	1212.92	1.41471	1329.1	–	–
333.15 K	1209.21	1.41334	1317.5	–	–
338.15 K	1205.51	1.41195	1305.8	–	–
343.15 K	1201.82	1.41056	1294.6	–	–
